Key:
Type in all cases: in vivo
[1] = tested on: beetles; experiment: Lethal activity against beetles (contact with film on glass); conditions: contact with film on glass from acetone solutions
Excerpt: The tests were effected by contact with a film on glass deposited by pipette of acetone solutions of different concentrations on the bottom of a glass Petrie dish with sides previously coated with talc to avoid loss of insects.

[2] = tested on: larvae of Spodoptera littoralis; experiment: Lethal effect against Spodoptera larvae (topical application); conditions: Spodoptera littoralis larvae 4th stage, topical 1 μl acetone solution, dead counted 48 hours later
Method: 1 μl of acetone solution of the test compound was applied with an Arnold micromanipulator to the dorsal thorax of 15 larvae of Spodoptera littoralis in the 4th stage of development which are about 10 days old at 24° C. and 65% relative humidity. After treatment, the larvae were placed on an artificial nutritive media and the number of dead was determined 48 hours later.

[3] = tested on: houseflies; experiment: Knockdown activity against houseflies; conditions: female houseflies 4 days old, sprayed in Kearns and March chamber, 0.25 g/liter, 5% acetone and 95% Isopar L
Method: Female houseflies 4 days old were sprayed in a Kearns and March chamber at 2 ml per second with a solution of 5% of acetone and 95% of Isopar L with 50 insects being used for each dose at a concentration of 0.25 g/liter and readings were taken every 30 seconds for 10 minutes and after 15 minutes to determine the KT50 by the usual method.

[4] = tested on: larvae of Acanthocelides obtectus; experiment: Lethal activity against Acanthocelides obtectus; conditions: Test D repeated
[5] = tested on: houseflies; experiment: Lethal activity against houseflies (topical application); conditions: female houseflies 4 to 5 days old, topical 1 μl acetone solution on dorsal thorax, dead counted 24 hours later
Method: 50 female houseflies 4 to 5 days old per treatment received a topical application of 1 μl of an acetone solution of the test compound on the dorsal thorax with an Arnold micromanipulator and the number of dead flies was determined 24 hours later. The DL50 or dose in nanograms per fly necessary to kill 50% of the insects were determined and the results are reported in Table II.

| SMILES | CL50 in mg/m^2 [1] [mg/m^2] | DL50 ng per insect [2] [ng per insect] | KT50 [3] [min] | DL50 in ng per insect [4] [ng per insect] | DL50 namograms per insects [5] [namograms per insects] |
| --- | --- | --- | --- | --- | --- |
| CC(C)[C@H](C(=O)O[C@H](C#N)c1ccc(F)c(Oc2ccccc2)c1)c1ccc(OC(F)F)cc1 [Example 12, (S) cyano (4-fluoro-3-phenoxy-phenyl)-methyl 2 (S)-[p-difluoromethoxy-phenyl]-3-methyl-butyrate] | 0.23 | 44.3 | 3.6 | 22.2 | 4.9 |
| CC1(C)C(C(=O)O[C@H](C#N)c2ccc(F)c(Oc3ccccc3)c2)C1(C)C [Example 1, (S) cyano-(4-fluoro-3-phenoxy-phenyl)-methyl 2,2,3,3-tetramethyl-cyclopropane-1-carboxylate] | 0.22 | 8.4 | 2.0 | 8.12 | 5.3 |
| CC1(C)[C@H](C(=O)O[C@H](C#N)c2ccc(F)c(Oc3ccccc3)c2)[C@H]1C(Br)C(Cl)(Cl)Br (mixture of isomers) [Example 2, (S) cyano-(4-fluoro-3-phenoxy-phenyl)-methyl (1R,trans) 2,2-dimethyl-3-[1 (R,S), 2-dibromo-2,2-dichloroethyl]-cyclopropane-1-carboxylate] | 0.084 | 6.2 | 2.8 | 10.9 | 1.14 |
| CC1(C)[C@H](C=C2CC2)[C@H]1C(=O)O[C@H](C#N)c1ccc(F)c(Oc2ccccc2)c1 [Example 15, (S) cyano-(3-phenoxy-4-fluoro-phenyl)-methyl (1R,trans) 2,2-dimethyl-3-cyclopropylidene-methyl-cyclopropane-1-carboxylate] | 0.137 | 4.6 | 2.85 | 31.2 | 2.04 |
| CC1(C)[C@H](C(=O)O[C@H](C#N)c2ccc(F)c(Oc3ccccc3)c2)[C@@H]1C(Br)C(Br)(Br)Br (stereo partly drawn) [Example 5, (S) cyano-(4-fluoro-3-phenoxy-phenyl)-methyl (1R,cis) 2,2-dimethyl-3-[1,(R,S) 2,2,2-tetrabromoethyl]-cyclopropane-1-carboxylate] | 0.037 | 1.6 | 4.8 | 16.1 | 0.58 |
| CC1(C)[C@H](C(=O)O[C@H](C#N)c2ccc(F)c(Oc3ccccc3)c2)[C@@H]1C=C1CCSC1=O [Example 11, (S) cyano-(4-fluoro-3-phenoxy-phenyl)-methyl (1R,cis) 2,2-dimethyl-3-[(dihydro-2-oxo-3-(2H)-thienylidene)-methyl]-cyclopropane-1-carboxylate] | – | 8.2 | 3.5 | 50.6 | 21.3 |
| CC1(C)[C@H](C(=O)O[C@H](C#N)c2ccc(F)c(Oc3ccccc3)c2)[C@@H]1C=C1CC1 [Example 14, (S) cyano-(4-fluoro-3-phenoxy-phenyl)-methyl (1R,cis) 2,2-dimethyl-3-cyclopropylidene-methyl-cyclopropane-1-carboxylate] | 0.049 | 4.25 | 3.13 | 22.7 | 1.44 |
| CC1(C)[C@H](C=C2CCSC2=O)[C@H]1C(=O)O[C@H](C#N)c1ccc(F)c(Oc2ccccc2)c1 [Example 10, (S) cyano-(4-fluoro-3-phenoxy-phenyl)-methyl (1R,trans) 2,2-dimethyl-3-[(dihydro-2-oxo-3-(2H)-thienylidene)-methyl]-cyclopropane-1-carboxylate] | – | – | 3.5 | – | – |
| CC1(C)[C@H](C(=O)O[C@H](C#N)c2ccc(F)c(Oc3ccccc3)c2)[C@@H]1C(Br)C(Cl)(Cl)Br (stereo partly drawn) [Example 3, (S) cyano-(4-fluoro-3-phenoxy-phenyl)-methyl (1R,cis) 2,2-dimethyl-3-[1(R,S) 2-dibromo-2,2-dichlor-ethyl]-cyclopropane-1-carboxylate] | 0.021 | 1.4 | 2.9 | 7.7 | 1.02 |
| CC1(C)[C@H](C(=O)O[C@H](C#N)c2ccc(F)c(Oc3ccccc3)c2)[C@@H]1C=C1CCC1 [Example 16, (S) cyano-(4-fluoro-3-phenoxy-phenyl)-methyl (1R,cis) 2,2-dimethyl-3-cyclobutylidenemethyl-cyclopropane-1-carboxylate] | 0.018 | 4.5 | 2.89 | 12.3 | 0.639 |
| CC1(C)[C@H](C=C2CCC2)[C@H]1C(=O)O[C@H](C#N)c1ccc(F)c(Oc2ccccc2)c1 [Example 13, (S) cyano-(4-fluoro-3-phenoxy-phenyl)-methyl (1R,trans) 2,2-dimethyl-3-cyclobutylidene-methyl-cyclopropane-1-carboxylate] | 0.029 | 5.8 | 2.74 | 17.9 | 0.97 |
| CC1(C)[C@H](C=C2CCCC2)[C@H]1C(=O)O[C@H](C#N)c1ccc(F)c(Oc2ccccc2)c1 [Example 8, (S) cyano-(4-fluoro-3-phenoxy-phenyl)-methyl (1R,trans) 2,2-dimethyl-3-cyclopentylidenemethyl-cyclopropane-1-carboxylate] | 0.054 | 14.9 | 6.1 | 20.1 | 0.98 |
| CC1(C)[C@H](C=C(F)F)[C@H]1C(=O)O[C@H](C#N)c1ccc(F)c(Oc2ccccc2)c1 [Example 6] | 0.126 | 3.4 | 1.6 | 7.1 | 8.9 |
| CC1(C)[C@H](C(=O)O[C@H](C#N)c2ccc(F)c(Oc3ccccc3)c2)[C@@H]1C=C(F)F [Example 7, (S) cyano-(4-fluoro-3-phenoxy-phenyl)-methyl (1R,cis) 2,2-dimethyl-3-[2,2-difluoroethenyl]-cyclopropane-1-carboxylate] | 0.029 | 2.2 | 1.7 | 7.4 | 1.9 |
| CC1(C)[C@H](C(=O)O[C@H](C#N)c2ccc(F)c(Oc3ccccc3)c2)[C@@H]1C=C1CCCC1 [Example 9, (S) cyano-(4-fluoro-3-phenoxy-phenyl)-methyl (1R,cis) 2,2-dimethyl-3-cyclopentylidenemethyl-cyclopropane-1-carboxylate] | 0.083 | 5.1 | 4.4 | 8.6 | 0.87 |
| CC1(C)[C@H](C(=O)O[C@H](C#N)c2ccc(F)c(Oc3ccccc3)c2)[C@H]1C(Br)C(Br)(Br)Br (stereo partly drawn) [Example 4, (S) cyano-(4-fluoro-3-phenoxy-phenyl)-methyl (1R,trans) 2,2-dimethyl-3-[1(R,S)2,2,2-tetrabromoethyl]-cyclopropane-1-carboxylate] | 0.074 | 6.5 | 2.0 | 6.7 | 1.04 |

Reference: patent US4463014A, “Cyclopropane carboxylates” (Uclaf; Roussel, priority 1981, dated 1984)
